Experiments:
[1] = tested on: influenza virus A/FM/1/47(H1N1), adapted for lungs of white mice; experiment: Model of influenza pneumonia in mice; format: in vivo; details: Tamiflu, dose not given, intra-abdominal
[2] = tested on: hemagglutinin of influenza virus AFM 1/47 (H1N1); experiment: Hemagglutination reaction: influence on hemagglutinin activity of influenza virus; format: biochemical

Row | Molecule | Difference in virus titers ([2]; concentration 10 mg/ml) [lg2^X] | Virus titer in the experiment ([2]; concentration 10 mg/ml, […]) [lg2^X] | other results
1 | CCOC(=O)C1=C[C@@H](OC(CC)CC)[C@H](NC(C)=O)[C@@H](N)C1 [Tamiflu, Oseltamivir] |  |  | % died ([1]; preventive regimen): 30 ± 1.0%; CP (Coefficient of protection) ([1]; preventive regimen): 5.0; IE (Index of effectiveness) ([1]; preventive regimen): 70.0; % died ([1]; treatment regimen): 20.0 ± 0.5%; CP (Coefficient of protection) ([1]; treatment regimen): 10.0; IE (Index of effectiveness) ([1]; treatment regimen): 80.0
2 | Polyinosylic acid [Poly I] | 3 | 6 | 
3 | Polyadenylic acid [Poly A] | 2 | 7 | 
4 | Polycytydilic acid [Poly C] | 2 | 7 | 
5 | Polyurydylic acid [Poly U] | 2 | 9 | 
6 | OC[C@@H](O)[C@@H](O)[C@H](O)[C@H](O)CO [Mannitol] |  |  | Difference in the virus titers ([2]; 0.5 mg/ml, temperature of reaction 30 ° C.): 0 log2x; Virus titer in the experiment ([2]; 0.5 mg/ml, temperature of reaction 30 ° C., control virus 8): 8 log2x
7 | Polyinosinic:polycytidylic acid [PolyIC] | 3 | 9 | 
8 | Poliguanylic acid [Poly G] | 0 | 9 | 

From patent publication US8722642B2, “Multiantivirus compound, composition and method for treatment of virus diseases” (Biocell Laboratories, priority 2011, dated 2014)
